From patent EP4644375A1, “SUBSTITUTED HYDROQUINOLINES FOR THE TREATMENT OF GLIOBLASTOMA MULTIFORME” (Molius Saglik Teknolojileri Anonim Sirketi, priority 2024, dated 2025)

Columns and labels:
[1] = tested on: U138-MG human glioma cell; assay: Cell proliferation analysis (MTT); type: cell-based; conditions: for activity at 10 µM / inhibition at 10 µM: Homo sapiens, 48 h, two days, MTT
[2] = tested on: U87-MG human glioma cell; assay: Cell proliferation analysis (MTT); type: cell-based; conditions: for activity at 10 µM / inhibition at 10 µM: Homo sapiens, U-87 MG, 48 h, two days, MTT
[3] = tested on: GBM xenograft rat model; assay: In vivo GBM rat model: histopathological examination of brain tissues; conditions: H&E, GBM rats, 30 mg/kg oral, 5 days
Description: An in Vivo study was performed to assess the therapeutic potential of TR-G002, TR-G045, TR-G053, TR-G066, TR-G071 and TR-G091 in the GBM xenograft rat model when administered orally by gavage for five consecutive days. 152 female rats of the Sprague Dawley strain were allocated to the study. Six groups of sixteen females were given dose of 30 mg/kg of the respective target compounds. […] The study design can be seen in Fig. 11 and Table 10.
Female Sprague Dawley rats (age: 6-8 weeks; weight: 255-310 g; ATADEM, Erzurum, Turkey) were utilized in the study. Rats underwent anaesthesia with 5% isoflurane, maintained at 2% isoflurane (1 L/min oxygen), and were positioned in a stereotactic frame for cell implantation (Stoelting Co., IL). […] A burr hole was drilled 1-mm anterior and 3-mm lateral to the right bregma. A microsyringe (Hamilton 1700 series) containing 5×10^4 U87-MG cells suspended in 5 µL of medium at 37 °C was advanced to a depth of 4 mm into the brain. The cells were injected at a rate of 3 µL/ min. Bone wax was used to fill the burr hole to prevent cell suspension reflux. The incision was sutured, and 1 mL of Meloxicam (5 mg/mL; Metacam, Boehringer Ingelheim Vetmedica, Ingelheim, Germany) was administered via a subcutaneous injection.
Fourteen days after inoculation, tumor development in rats was visualized and confirmed through magnetic resonance imaging (MRI). Rats confirmed to have developed tumors were then distributed into six different groups for treatment. […] 9 days after the final treatment dose, the rats underwent another MRI scan and blood and brain samples were taken under anaesthesia.
Brain tissue samples were fixed in a 10% buffered formaldehyde solution. After fixation, the tissues were processed through graded alcohol and xylene series and embedded in paraffin blocks. Sections of 5 µm thickness were taken from the paraffin blocks at intervals of 50-100 µm. Hematoxylin and eosin staining was performed on these sections to evaluate histopathological changes. Histopathological findings included tumor focus size, necrotic area, vascular proliferation, and cellular proliferation patterns. Tumor focus size was categorized as follows based on the diameter measured with a 4X objective on the microscope: >3500 µm was considered very severe, 3499-2000 µm severe, 1999-1000 µm moderate, 999-500 µm mild, and <500 µm very mild. Necrotic area size was classified based on the diameter of necrosis: >1500 µm as very severe, 1499-1000 µm severe, 999-500 µm moderate, 499-200 µm mild, and <199 µm very mild.

[4] = tested on: H2A.X; assay: In vivo GBM rat model: double immunofluorescence examination; conditions: neurons, brain tissues, GBM rats, 30 mg/kg oral, 5 days
Description: (§1) In immunofluorescence examinations, primary antibody (NOP10 Cat no: ab134902 dilution ratio: 1/100) was applied to tissues and incubated according to the instructions. A fluorescent secondary antibody (FITC Cat No: ab6785 dilution Ratio: 1/1000 UK) was then applied and incubated in the dark for 45 minutes. Afterward, a second primary antibody (H2A.X Cat no: sc-517336 dilution ratio: 1/100) was applied and incubated according to the instructions. A different fluorescent secondary antibody (Texas Red Cat No: ab6719 dilution Ratio: 1/1000 UK) was applied and incubated in the dark for 45 minutes. Finally, DAPI (Cat no: D1306 dilution ratio: 1/200 UK) was applied to the sections for 5 minutes in the dark, followed by covering the tissues with coverslips. The stained tissues were examined under a fluorescence attachment-equipped microscope (Zeiss AXIO, Germany).
(§2) Individual body weights were manually calculated. Group mean body weights; group mean body weight changes and organ weights were also manually calculated without statistical analysis. To determine the density of positive staining from immunohistochemical and immunofluorescence staining images, five randomly selected areas were evaluated using ZEISS Zen Imaging Software. Data were statistically defined as mean and standard deviation (mean ± SD) for the percentage of the area. One-way ANOVA followed by the Tukey test was performed to compare immunoreactive cells and immune-positive stained areas with healthy controls. GraphPad Prism software was used for analysis.

[5] = tested on: NOP10; assay: as above; conditions: neurons, brain tissues, GBM rats, 30 mg/kg oral, 5 days
Description: as §1, §2

[6] = In vivo GBM rat model: haematology; conditions: GBM rats, 30 mg/kg oral, 5 days, blood at necropsy
Description: The parameters that were analysed can be seen in Table 11.

`CC(C)CCOc1ccc2c(c1)CCC(=O)N2` [TR-G002, 6-(isopentyloxy)-3,4-dihydroquinolin-2(1H)-one] gave an activity at 10 µM [1] of 52%, an inhibition at 10 µM [1] of 48% and an activity at 10 µM [2] of 48%. The inhibition at 10 µM [2] was 52%, the “cellular proliferation / mitosis” value [3] was “mild” and the “tumor focus (description)” value [3] was “significantly reduced tumor focus”. The vascular proliferation [3] was “mild”, the “expressions of H2AX” value [4] was “mild” and the “expressions of Nopio” value [5] was “mild”. For the same molecule, the HCT [6] was 48.53%, the HGB [6] was 14.88 g/dL and the MCH [6] was 18.43 pg. For the same molecule, the MCHC [6] was 30.71 g/dL, the MCV [6] was 59.99 fL and the PLT [6] was 805.75 10^9 /L. The RBC [6] was 8.11 10^12/L and the WBC [6] was 3.65 10^9/L.

With `COc1cc(NC(=O)COc2ccc3c(c2)CCC(=O)N3)cc(OC)c1` [TR-G091, N-(3,5-dimethoxyphenyl)-2-((2-oxo-1,2,3,4-tetrahydroquinolin-6-yl)oxy)acetamide] the activity at 10 µM [1] was 86%, the inhibition at 10 µM [1] was 14% and the activity at 10 µM [2] was 101%. For the same molecule, the inhibition at 10 µM [2] was -1%, the “necrosis (grade)” value [3] was “Moderate” and the “tumor focus (description)” value [3] was “extended tumor focus encompassing both grey and white matter”. The “expressions of H2AX” value [4] was “moderate”, the “expressions of Nopio” value [5] was “moderate” and the HCT [6] was 43.95%. For the same molecule, the HGB [6] was 13.80 g/dL, the MCH [6] was 17.90 pg and the MCHC [6] was 31.40 g/dL. The MCV [6] was 56.95 fL, the PLT [6] was 744.50 10^9 /L and the RBC [6] was 7.73 10^12/L. The WBC [6] was 6.56 10^9/L.

Molecule `C=CCOC(=O)COc1ccc2c(c1)CCC(=O)N2` [TR-G071, Allyl 2-((2-oxo-1,2,3,4-tetrahydroquinolin-6-yl)oxy)acetate] has an activity at 10 µM [1] of 100%, an inhibition at 10 µM [1] of 0% and an activity at 10 µM [2] of 97%. For the same molecule, the inhibition at 10 µM [2] was 3%, the “cellular proliferation / mitosis” value [3] was “moderate levels of mitosis” and the “necrosis (grade)” value [3] was “moderate (999-500 µm moderate)”. The “tumor focus (description)” value [3] was “expanded tumor focus”, the vascular proliferation [3] was “moderate” and the “expressions of H2AX” value [4] was “moderate”. For the same molecule, the “expressions of Nopio” value [5] was “moderate”, the HCT [6] was 48.15% and the HGB [6] was 14.15 g/dL. For the same molecule, the MCH [6] was 17.65 pg, the MCHC [6] was 31.20 g/dL and the MCV [6] was 58.65 fL. For the same molecule, the PLT [6] was 823.00 10^9 /L, the RBC [6] was 8.56 10^12/L and the WBC [6] was 3.82 10^9/L.

For `O=C(COc1ccc2c(c1)CCC(=O)N2)N/N=C/c1cnc(-c2ccc(Cl)cc2)nc1` [TR-G066, (E)-N'-((2-(4-chlorophenyl)pyrimidin-5-yl)methylene)-2-((2-oxo-1,2,3,4-tetrahydroquinolin-6-yl)oxy)acetohydrazide], the lowest cell proliferation [1] was 39%, the inhibition at 10 µM [1] was 62% and the inhibition at 10 µM [2] was 33%. For the same molecule, the “tumor focus (description)” value [3] was “few tumor cells, particularly around blood vessels, rather than a distinct tumor focus shape”, the “expressions of H2AX” value [4] was “very mild” and the “expressions of Nopio” value [5] was “very mild”. The HCT [6] was 46.30%, the HGB [6] was 15.00 g/dL and the MCH [6] was 18.51 pg. The MCHC [6] was 31.11 g/dL, the MCV [6] was 59.60 fL and the PLT [6] was 799.14 10^9 /L. For the same molecule, the RBC [6] was 8.12 10^12/L and the WBC [6] was 4.57 10^9/L.

Work on `C=Cc1ccc(COc2ccc3c(c2)CCC(=O)N3)cc1` [TR-G053, 6-((4-vinylbenzyl)oxy)-3,4-dihydroquinolin-2(1H)-one] yielded an activity at 10 µM [1] of 53%, an inhibition at 10 µM [1] of 47% and a lowest cell proliferation [2] of 42%. The activity at 10 µM [2] was 42%, the inhibition at 10 µM [2] was 58% and the “top 5 target compounds whose treatment resulted in the lowest proliferation” value ([2]; ranking) was “top 5”. For the same molecule, the “cellular proliferation / mitosis” value [3] was “intense mitosis around blood vessels”, the “necrosis (grade)” value [3] was “Severe” and the “tumor focus (description)” value [3] was “tumor focus including both grey and white matter”. The “expressions of H2AX” value [4] was “severe”, the “expressions of Nopio” value [5] was “severe” and the HCT [6] was 48.77%. It also gave an HGB [6] of 14.67 g/dL, an MCH [6] of 17.83 pg and an MCHC [6] of 30.07 g/dL. For the same molecule, the MCV [6] was 59.33 fL, the PLT [6] was 823.33 10^9 /L and the RBC [6] was 8.23 10^12/L. For the same molecule, the WBC [6] was 3.40 10^9/L.

Molecule `O=C1CCc2cc(OS(=O)(=O)c3cccc4ccccc34)ccc2N1` [TR-G045, 2-oxo-1,2,3,4-tetrahydroquinolin-6-yl naphthalene-1-sulfonate] has an activity at 10 µM [1] of 71%, an inhibition at 10 µM [1] of 30% and an activity at 10 µM [2] of 71%. The inhibition at 10 µM [2] was 29%, the “cellular proliferation / mitosis” value [3] was “moderate mitosis” and the “necrotic cells (description)” value [3] was “Necrotic cells were present in the central regions”. For the same molecule, the “tumor focus size (grade)” value [3] was “moderate (1999-1000 µm moderate)”, the vascular proliferation [3] was “vascular proliferation in the vicinity of healthy tissue” and the “expressions of H2AX” value [4] was “moderate”. The “expressions of Nopio” value [5] was “moderate”, the HCT [6] was 47.24% and the HGB [6] was 14.12 g/dL. It also gave an MCH [6] of 18.46 pg, an MCHC [6] of 30.54 g/dL and an MCV [6] of 60.48 fL. For the same molecule, the PLT [6] was 845.60 10^9 /L, the RBC [6] was 8.34 10^12/L and the WBC [6] was 4.32 10^9/L.
